Assay results as given in patent publication US11634447B2 (priority 2012, dated 2023).
pIC50: −log10 of the molar value.

Test system: bacterial strain LF82 binding to the glycoprotein BSA-(Mannose)3
Experiment: Bacterial Binding Assay (BBA)
Type: cell-based, Escherichia coli
Conditions: read-out: Bacterial Binding Assay IC50, LF82/Luciferase strain binding to BSA-(Man)3 coated plates, luminescence
Summary of the method: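 Inhibition of LF82/luciferase E. coli adhesion is read as luminescence after washing off unbound cells. Compound and bacteria (10^7 per well) are co-incubated 40-75 min at room temperature on wells coated with 0.5-2 μg/mL BSA-(Man)3, with BSA-only wells as background; IC50 values derived.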

OC[C@H]1O[C@H](C#Cc2cc3cc(C#C[C@H]4O[C@H](CO)[C@@H](O)[C@H](O)[C@@H]4O)sc3s2)[C@@H](O)[C@@H](O)[C@@H]1O [Compound 123, (2R,3S,4R,5S,6R)-2-(hydroxymethyl)-6-[2-[5-[2-[(2R,3S,4R,5S,6R)-3,4,5-trihydroxy-6-(hydroxymethyl)tetrahydropyran-2-yl]ethynyl]thieno[2,3-b]thiophen-2-yl]ethynyl]tetrahydropyran-3,4,5-triol] and OC[C@H]1O[C@H](C#Cc2ccc(C#C[C@H]3O[C@H](CO)[C@@H](O)[C@H](O)[C@@H]3O)s2)[C@@H](O)[C@@H](O)[C@@H]1O [Compound 138] are within 0.2 log units of each other in pIC50: 7.39 for the first, 7.51 for the second.

OC[C@H]1O[C@H](C#Cc2ccc3c(c2)sc2cc(C#C[C@H]4O[C@H](CO)[C@@H](O)[C@H](O)[C@@H]4O)ccc23)[C@@H](O)[C@@H](O)[C@@H]1O [Compound 109, (2R,3S,4R,5S,6R)-2-(hydroxymethyl)-6-[2-[7-[2-[(2R,3S,4R,5S,6R)-3,4,5-trihydroxy-6-(hydroxymethyl)tetrahydropyran-2-yl]ethynyl]dibenzothiophen-3-yl]ethynyl]tetrahydropyran-3,4,5-triol] and CCn1c2ccc(C#C[C@H]3O[C@H](CO)[C@@H](O)[C@H](O)[C@@H]3O)cc2c2cc(C#C[C@H]3O[C@H](CO)[C@@H](O)[C@H](O)[C@@H]3O)ccc21 [Compound 107, (2R,3S,4R,5S,6R)-2-[2-[9-ethyl-6-[2-[(2R,3S,4R,5S,6R)-3,4,5-trihydroxy-6-(hydroxymethyl)tetrahydropyran-2-yl]ethynyl]carbazol-3-yl]ethynyl]-6-(hydroxymethyl)tetrahydropyran-3,4,5-triol] are within 0.2 log units of each other in pIC50: 7.70 for the first, 7.89 for the second.

Compared with OC[C@H]1O[C@H](C#Cc2ccc(C#C[C@H]3O[C@H](CO)[C@@H](O)[C@H](O)[C@@H]3O)c(Cl)c2Cl)[C@@H](O)[C@@H](O)[C@@H]1O [Compound 75], Cc1c(C#C[C@H]2O[C@H](CO)[C@@H](O)[C@H](O)[C@@H]2O)ccc(C#C[C@H]2O[C@H](CO)[C@@H](O)[C@H](O)[C@@H]2O)c1C [Compound 99, (2R,3S,4R,5S,6R)-2-[2-[2,3-dimethy1-4-[2-[(2R,3S,4R,5S,6R)-3,4,5-trihydroxy-6-(hydroxymethyl)tetrahydropyran-2-yl]ethynyl]phenyl]ethynyl]-6-(hydroxymethyl)tetrahydropyran-3,4,5-triol] is 0.28 log units lower in pIC50: 7.12 for the first, 6.84 for the second.

Compared with CC(C)Oc1cc(C#C[C@H]2O[C@H](CO)[C@@H](O)[C@H](O)[C@@H]2O)ccc1C#C[C@H]1O[C@H](CO)[C@@H](O)[C@H](O)[C@@H]1O [Compound 83, (2R,3S,4R,5S,6R)-2-(hydroxymethyl)-6-[2-[3-isopropoxy-4-[2-[(2R,3S,4R,5S,6R)-3,4,5-trihydroxy-6-(hydroxymethyl)tetrahydropyran-2-yl]ethynyl]phenyl]ethynyl]tetrahydropyran-3,4,5-triol], OC[C@H]1O[C@H](C#Cc2ccc(C#C[C@H]3O[C@H](CO)[C@@H](O)[C@H](O)[C@@H]3O)c(OCc3ccccc3)c2)[C@@H](O)[C@@H](O)[C@@H]1O [Compound 80, (2R,3S,4R,5S,6R)-2-[2-[3-benzyloxy-4-[2-[(2R,3S,4R,5S,6R)-3,4,5-trihydroxy-6-(hydroxymethyl)tetrahydropyran-2-yl]ethynyl]phenyl]ethynyl]-6-(hydroxymethyl)tetrahydropyran-3,4,5-triol] is 0.46 log units lower in pIC50: 8.42 for the first, 7.96 for the second.

First: Cc1c(C)c(C#C[C@H]2O[C@H](CO)[C@@H](O)[C@H](O)[C@@H]2O)c(C)c(C)c1C#C[C@H]1O[C@H](CO)[C@@H](O)[C@H](O)[C@@H]1O [Compound 84, (2R,3S,4R,5S,6R)-2-(hydroxymethyl)-6-[2-[2,3,5,6-tetramethy1-4-[2-[(2R,3S,4R,5S,6R)-3,4,5-trihydroxy-6-(hydroxymethyl)tetrahydropyran-2-yl]ethynyl]phenyl]ethynyl]tetrahydropyran-3,4,5-triol]
Second: COc1cc(C#C[C@H]2O[C@H](CO)[C@@H](O)[C@H](O)[C@@H]2O)ncc1C#C[C@H]1O[C@H](CO)[C@@H](O)[C@H](O)[C@@H]1O [Compound 134, (2R,3S,4R,5S,6R)-2-(hydroxymethyl)-6-[2-[4-methoxy-5-[2-[(2R,3S,4R,5S,6R)-3,4,5-trihydroxy-6-(hydroxymethyl)tetrahydropyran-2-yl]ethynyl]-2-pyridyl]ethynyl]tetrahydropyran-3,4,5-triol]
The pIC50 of the first is 0.86 log units lower: 6.50 for the first, 7.36 for the second.

OC[C@H]1O[C@H](C#Cc2ccc3c(c2)C(O)(C2CC2)c2cc(C#C[C@H]4O[C@H](CO)[C@@H](O)[C@H](O)[C@@H]4O)ccc2-3)[C@@H](O)[C@@H](O)[C@@H]1O (stereo partly drawn) [Compound 114, (2R,3S,4R,5S,6R)-2-[2-[9-cyclopropyl-9-hydroxy-7-[2-[(2R,3S,4R,5S,6R)-3,4,5-trihydroxy-6-(hydroxymethyl)tetrahydropyran-2-yl]ethynyl]fluoren-2-yl]ethynyl]-6-(hydroxymethyl)tetrahydropyran-3,4,5-triol] and CC1(C)c2cc(C#C[C@H]3O[C@H](CO)[C@@H](O)[C@H](O)[C@@H]3O)ccc2-c2ccc(C#C[C@H]3O[C@H](CO)[C@@H](O)[C@H](O)[C@@H]3O)cc21 [Compound 120, (2R,3S,4R,5S,6R)-2-[2-[9,9-dimethyl-7-[2-[(2R,3S,4R,5S,6R)-3,4,5-trihydroxy-6-(hydroxymethyl)tetrahydropyran-2-yl]ethynyl]fluoren-2-yl]ethynyl]-6-(hydroxymethyl)tetrahydropyran-3,4,5-triol] are the same in pIC50: 8.92 for the first, 8.92 for the second.

OC[C@H]1O[C@H](C#Cc2ccc3c4ccc(C#C[C@H]5O[C@H](CO)[C@@H](O)[C@H](O)[C@@H]5O)cc4n(CCN4CCOCC4)c3c2)[C@@H](O)[C@@H](O)[C@@H]1O [Compound 189, (2R,3S,4R,5S,6R)-2-(hydroxymethyl)-6-[2-[9-(2-morpholinoethyl)-7-[2-[(2R,3S,4R,5S,6R)-3,4,5-trihydroxy-6-(hydroxymethyl)tetrahydropyran-2-yl]ethynyl]carbazol-2-yl]ethynyl]tetrahydropyran-3,4,5-triol] and O=S1(=O)c2cc(C#C[C@H]3O[C@H](CO)[C@@H](O)[C@H](O)[C@@H]3O)ccc2-c2ccc(C#C[C@H]3O[C@H](CO)[C@@H](O)[C@H](O)[C@@H]3O)cc21 [Compound 161, (2R,3S,4R,5S,6R)-2-[2-[5,5-dioxo-7-[2-[(2R,3S,4R,5S,6R)-3,4,5-trihydroxy-6-(hydroxymethyl)tetrahydropyran-2-yl]ethynyl]dibenzothiophen-3-yl]ethynyl]-6-(hydroxymethyl)tetrahydropyran-3,4,5-triol] are within 0.2 log units of each other in pIC50: 8.11 for the first, 7.92 for the second.

Going from N#CC1(C(=O)c2c(C#C[C@H]3O[C@H](CO)[C@@H](O)[C@H](O)[C@@H]3O)ccc3c2C2(CCNCC2)c2cc(C#C[C@H]4O[C@H](CO)[C@@H](O)[C@H](O)[C@@H]4O)ccc2-3)CC1 [Compound 230, 1-[2,7-bis[2-[(2R,3S,4R,5S,6R)-3,4,5-trihydroxy-6-(hydroxymethyl)tetrahydropyran-2-yl]ethynyl]spiro[fluorene-9,4piperidine]-1carbonyl]cyclopropanecarbonitrile] to O=C(CN1CCCC1=O)c1c(C#C[C@H]2O[C@H](CO)[C@@H](O)[C@H](O)[C@@H]2O)ccc2c1C1(CCNCC1)c1cc(C#C[C@H]3O[C@H](CO)[C@@H](O)[C@H](O)[C@@H]3O)ccc1-2 [Compound 241, 1-[2-[2,7-bis[2-[(2R,3S,4R,5S,6R)-3,4,5-trihydroxy-6-(hydroxymethyl)tetrahydropyran-2-yl]ethynyl]spiro[fluorene-9,4piperidine]-1yl]-2-oxo-ethyl]pyrrolidin-2-one], the pIC50 rises from 9.80 to 10.52 (0.72 log units). The second is the more potent here.

Compared with OC[C@H]1O[C@H](c2ccc(C#C[C@H]3O[C@H](CO)[C@@H](O)[C@H](O)[C@@H]3O)c(F)c2)[C@@H](O)[C@@H](O)[C@@H]1O [Compound 144], OC[C@H]1O[C@H](C#Cc2ccc(C#C[C@H]3O[C@H](CO)[C@@H](O)[C@H](O)[C@@H]3O)c3nsnc23)[C@@H](O)[C@@H](O)[C@@H]1O [Compound 131, (2R,3S,4R,5S,6R)-2-(hydroxymethyl)-6-[2-[4-[2-[(2R,3S,4R,5S,6R)-3,4,5-trihydroxy-6-(hydroxymethyl)tetrahydropyran-2-yl]ethynyl]-2,1,3-benzothiadiazol-7-yl]ethynyl]tetrahydropyran-3,4,5-triol] is 0.26 log units higher in pIC50: 6.63 for the first, 6.89 for the second.

Going from Cc1cc(C2CC2c2ccc([C@H]3O[C@H](CO)[C@@H](O)[C@H](O)[C@@H]3O)c(C)c2)ccc1[C@H]1O[C@H](CO)[C@@H](O)[C@H](O)[C@@H]1O (stereo partly drawn) [Compound 160, (2R,3S,4R,5S,6R)-2-(hydroxymethyl)-6-[2-methyl-4-[2-[3-methyl-4-[(2R,3S,4R,5S,6R)-3,4,5-trihydroxy-6-(hydroxymethyl)tetrahydropyran-2-yl]phenyl]cyclopropyl]phenyl]tetrahydropyran-3,4,5-triol] to Cc1cc([C@H]2O[C@H](CO)[C@@H](O)[C@H](O)[C@@H]2O)ccc1-c1ccc([C@H]2O[C@H](CO)[C@@H](O)[C@H](O)[C@@H]2O)c(C)c1 [Compound 149], the pIC50 falls from 7.77 to 7.57 (0.20 log units). The first is the more potent here.

Compared with Cc1cc(-c2ccc([C@H]3O[C@H](CO)[C@@H](O)[C@H](O)[C@@H]3O)cc2)ccc1[C@H]1O[C@H](CO)[C@@H](O)[C@H](O)[C@@H]1O [Compound 64], CCCC1(O)c2cc(C#C[C@H]3O[C@H](CO)[C@@H](O)[C@H](O)[C@@H]3O)ccc2-c2ccc(C#C[C@H]3O[C@H](CO)[C@@H](O)[C@H](O)[C@@H]3O)cc21 [Compound 168, (2R,3S,4R,5S,6R)-2-(hydroxymethyl)-6-[2-[9-hydroxy-9-propyl-7-[2-[(2R,3S,4R,5S,6R)-3,4,5-trihydroxy-6-(hydroxymethyl)tetrahydropyran-2-yl]ethynyl]fluoren-2-yl]ethynyl]tetrahydropyran-3,4,5-triol] is 0.69 log units higher in pIC50: 7.82 for the first, 8.51 for the second. The second is the more potent here.

Work on CC(=O)OCC1(COC(C)=O)c2cc(C#C[C@H]3O[C@H](CO)[C@@H](O)[C@H](O)[C@@H]3O)ccc2-c2ccc(C#C[C@H]3O[C@H](CO)[C@@H](O)[C@H](O)[C@@H]3O)cc21 [Compound 211, [9-(acetoxymethyl)-2,7-bis[2-[(2R,3S,4R,5S,6R)-3,4,5-trihydroxy-6-(hydroxymethyl)tetrahydropyran-2-yl]ethynyl]fluoren-9-yl]methyl acetate] yielded a pIC50 of 8.66.
